Data as given in patent US12723063B2, “GIPR-agonist compounds” (Eli Lilly and Company, priority 2019, dated 2026).
*1 amine or outer side, *2 acyl side, *3 side chain or, on linkers, in order; H or OH if unused. Where a SMILES comes first, the peptide text is derived from it. Side-chain parts run from the residue outwards. [ ]: non-standard residue; d: D form. The star is where a group is joined. C20 diacid = O=C(O)CCCCCCCCCCCCCCCCCCC(=O)*; γGlu = O=C(O)[C@H](CCC(=O)[*:2])N[*:1]; 4Pal = N[C@@H](Cc1ccncc1)C(=O)O; αMeL = CC(C)C[C@](C)(N)C(=O)O; Iva = CC[C@](C)(N)C(=O)O; Orn = NCCC[C@H](N)C(=O)O; AEEA = NCCOCCOCC(=O)O; Aib = CC(C)(N)C(=O)O

Assays:
[1] = molecular target: T1, human glucagon receptor (GcgR) (Homo sapiens, UniProt P47871); assay: cAMP functional assay (HTRF) in HEK293 cells in presence of 0.1% casein; format: cell-based; settings: HEK293 cells expressing human GcgR, geometric mean, read-out: hGcgR cAMP Rel EC50 nM (SEM, n)
T1 construct: expressed in transfected cells; host or cells: HEK293
T1 sequence (P47871 26-477): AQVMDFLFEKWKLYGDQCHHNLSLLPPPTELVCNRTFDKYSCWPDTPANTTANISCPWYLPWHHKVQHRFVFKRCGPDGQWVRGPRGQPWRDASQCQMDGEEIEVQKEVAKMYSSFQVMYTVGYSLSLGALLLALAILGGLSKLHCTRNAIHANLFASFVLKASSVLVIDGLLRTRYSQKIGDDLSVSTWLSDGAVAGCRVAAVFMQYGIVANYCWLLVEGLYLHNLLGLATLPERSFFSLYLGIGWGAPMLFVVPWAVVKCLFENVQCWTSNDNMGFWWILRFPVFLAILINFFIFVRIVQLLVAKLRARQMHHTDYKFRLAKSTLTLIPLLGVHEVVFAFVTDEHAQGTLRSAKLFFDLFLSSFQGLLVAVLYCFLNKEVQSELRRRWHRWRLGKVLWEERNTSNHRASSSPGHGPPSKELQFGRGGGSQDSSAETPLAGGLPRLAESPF

[2] = molecular target: T2, human glucose-dependent insulinotropic peptide receptor (GIPR) (Homo sapiens, UniProt P48546); assay: as above; format: cell-based; settings: HEK293 cells expressing human GIPR, geometric mean, read-out: hGIPR cAMP Rel EC50 nM (SEM, n)
T2 construct: expressed in transfected cells; host or cells: HEK293
T2 sequence (P48546 22-466): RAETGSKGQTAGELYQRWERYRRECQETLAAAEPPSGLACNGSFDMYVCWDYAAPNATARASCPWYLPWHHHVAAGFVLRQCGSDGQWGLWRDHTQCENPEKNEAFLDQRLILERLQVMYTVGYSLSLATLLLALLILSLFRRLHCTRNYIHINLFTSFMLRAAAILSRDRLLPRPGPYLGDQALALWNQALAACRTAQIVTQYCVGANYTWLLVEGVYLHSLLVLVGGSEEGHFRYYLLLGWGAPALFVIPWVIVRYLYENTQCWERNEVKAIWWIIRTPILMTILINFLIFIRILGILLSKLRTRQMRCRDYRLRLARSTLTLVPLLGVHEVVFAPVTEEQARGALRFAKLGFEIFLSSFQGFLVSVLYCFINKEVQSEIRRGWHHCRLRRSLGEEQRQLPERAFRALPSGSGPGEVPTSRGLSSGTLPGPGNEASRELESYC

Compound	EC50 [1] [nM]	EC50 [2] [nM]
CC[C@H](C)[C@H](NC(=O)[C@H](CO)NC(=O)[C@H](Cc1ccc(O)cc1)NC(=O)[C@H](CC(=O)O)NC(=O)[C@H](CO)NC(=O)[C@@H](NC(=O)[C@](C)(CC)NC(=O)[C@@H](NC(=O)CNC(=O)[C@H](CCC(=O)O)NC(=O)C(C)(C)NC(=O)[C@@H](N)Cc1ccc(O)cc1)[C@@H](C)O)[C@@H](C)CC)C(=O)N[C@@](C)(CC(C)C)C(=O)N[C@@H](CC(C)C)C(=O)N[C@@H](CC(=O)O)C(=O)N[C@@H](CCCCN)C(=O)N[C@@H](CCCCNC(=O)COCCOCCNC(=O)COCCOCCNC(=O)CC[C@H](NC(=O)CCCCCCCCCCCCCCCCCCC(=O)O)C(=O)O)C(=O)N[C@@H](Cc1c[nH]cn1)C(=O)N[C@@H](CCC(N)=O)C(=O)NC(C)(C)C(=O)N[C@@H](CC(=O)O)C(=O)N[C@@H](Cc1ccccc1)C(=O)N[C@H](C(=O)N[C@@H](CCC(=O)O)C(=O)N[C@@H](Cc1ccncc1)C(=O)N[C@@H](CC(C)C)C(=O)N[C@@H](CC(C)C)C(=O)N[C@@H](CCC(=O)O)C(=O)N[C@H](C(=O)NCC(=O)N1CCC[C@H]1C(=O)N[C@@H](CO)C(=O)N[C@@H](CO)C(=O)NCC(=O)N[C@@H](C)C(=O)N1CCC[C@H]1C(=O)N1CCC[C@H]1C(=O)N1CCC[C@H]1C(=O)N[C@@H](CO)C(N)=O)[C@@H](C)O)C(C)C [Example 75] (H-Y[Aib]EGT[Iva]ISDYSI[αMeL]LDKK([AEEA-AEEA-γGlu-C20 diacid])HQ[Aib]DFVE[4Pal]LLETGPSSGAPPPS-NH2)	2170	0.0182
CC[C@H](C)[C@H](NC(=O)[C@H](CO)NC(=O)[C@H](Cc1ccc(O)cc1)NC(=O)[C@H](CC(=O)O)NC(=O)[C@H](CO)NC(=O)[C@@H](NC(=O)[C@](C)(CC)NC(=O)[C@@H](NC(=O)CNC(=O)[C@H](CCC(=O)O)NC(=O)C(C)(C)NC(=O)[C@@H](N)Cc1ccc(O)cc1)[C@@H](C)O)[C@@H](C)CC)C(=O)N[C@@](C)(CC(C)C)C(=O)N[C@@H](CC(C)C)C(=O)N[C@@H](CC(=O)O)C(=O)N[C@@H](CCCN)C(=O)N[C@@H](CCCCNC(=O)COCCOCCNC(=O)COCCOCCNC(=O)CC[C@H](NC(=O)CCCCCCCCCCCCCCCCCCC(=O)O)C(=O)O)C(=O)N[C@@H](Cc1c[nH]cn1)C(=O)N[C@@H](CCC(N)=O)C(=O)NC(C)(C)C(=O)N[C@@H](CC(=O)O)C(=O)N[C@@H](Cc1ccccc1)C(=O)N[C@H](C(=O)N[C@@H](CCC(=O)O)C(=O)N[C@@H](Cc1ccncc1)C(=O)N[C@@H](CC(C)C)C(=O)N[C@@H](CC(C)C)C(=O)N[C@@H](CCC(=O)O)C(=O)NCC(=O)NCC(=O)N1CCC[C@H]1C(=O)N[C@@H](CO)C(=O)N[C@@H](CO)C(=O)NCC(=O)N[C@@H](C)C(=O)N1CCC[C@H]1C(=O)N1CCC[C@H]1C(=O)N1CCC[C@H]1C(=O)N[C@@H](CO)C(N)=O)C(C)C [Example 76] (H-Y[Aib]EGT[Iva]ISDYSI[αMeL]LD[Orn]K([AEEA-AEEA-γGlu-C20 diacid])HQ[Aib]DFVE[4Pal]LLEGGPSSGAPPPS-NH2)	1200	0.0154
CC[C@H](C)[C@H](NC(=O)[C@H](CO)NC(=O)[C@H](Cc1ccc(O)cc1)NC(=O)[C@H](CC(=O)O)NC(=O)[C@H](CO)NC(=O)[C@@H](NC(=O)[C@](C)(CC)NC(=O)[C@@H](NC(=O)CNC(=O)[C@H](CCC(=O)O)NC(=O)C(C)(C)NC(=O)[C@@H](N)Cc1ccc(O)cc1)[C@@H](C)O)[C@@H](C)CC)C(=O)N[C@@](C)(CC(C)C)C(=O)N[C@@H](CC(C)C)C(=O)N[C@@H](CC(=O)O)C(=O)N[C@@H](CCCN)C(=O)N[C@@H](CCCCNC(=O)COCCOCCNC(=O)COCCOCCNC(=O)CC[C@H](NC(=O)CCCCCCCCCCCCCCCCCCC(=O)O)C(=O)O)C(=O)N[C@@H](Cc1c[nH]cn1)C(=O)N[C@@H](CCC(N)=O)C(=O)NC(C)(C)C(=O)N[C@@H](CC(=O)O)C(=O)N[C@@H](Cc1ccccc1)C(=O)N[C@H](C(=O)N[C@@H](CCC(=O)O)C(=O)N[C@@H](Cc1ccncc1)C(=O)N[C@@H](CC(C)C)C(=O)N[C@@H](CC(C)C)C(=O)N[C@@H](CCC(=O)O)C(=O)N[C@H](C(=O)NCC(=O)N1CCC[C@H]1C(=O)N[C@@H](CO)C(=O)N[C@@H](CO)C(=O)NCC(=O)N[C@@H](C)C(=O)N1CCC[C@H]1C(=O)N1CCC[C@H]1C(=O)N1CCC[C@H]1C(=O)N[C@@H](CO)C(N)=O)[C@@H](C)O)C(C)C [Example 77] (H-Y[Aib]EGT[Iva]ISDYSI[αMeL]LD[Orn]K([AEEA-AEEA-γGlu-C20 diacid])HQ[Aib]DFVE[4Pal]LLETGPSSGAPPPS-NH2)	2660	0.0265
CC[C@H](C)[C@H](NC(=O)[C@H](Cc1ccccc1)NC(=O)[C@@H](NC(=O)CNC(=O)[C@H](CCC(=O)O)NC(=O)C(C)(C)NC(=O)[C@@H](N)Cc1ccc(O)cc1)[C@@H](C)O)C(=O)N[C@@H](CO)C(=O)N[C@@H](CC(=O)O)C(=O)N[C@@H](Cc1ccc(O)cc1)C(=O)N[C@@H](CO)C(=O)N[C@H](C(=O)N[C@@](C)(CC(C)C)C(=O)N[C@@H](CC(C)C)C(=O)N[C@@H](CC(=O)O)C(=O)N[C@@H](CCCCN)C(=O)N[C@@H](CCCCNC(=O)COCCOCCNC(=O)COCCOCCNC(=O)CC[C@H](NC(=O)CCCCCCCCCCCCCCCCCCC(=O)O)C(=O)O)C(=O)N[C@@H](Cc1c[nH]cn1)C(=O)N[C@@H](CCC(N)=O)C(=O)NC(C)(C)C(=O)N[C@@H](CC(=O)O)C(=O)N[C@@H](Cc1ccccc1)C(=O)N[C@H](C(=O)N[C@@H](CCC(=O)O)C(=O)N[C@@H](Cc1ccncc1)C(=O)N[C@@H](CC(C)C)C(=O)N[C@@H](CC(C)C)C(=O)N[C@@H](C)C(=O)N[C@@H](C)C(=O)NCC(=O)N1CCC[C@H]1C(=O)N[C@@H](CO)C(=O)N[C@@H](CO)C(=O)NCC(=O)N[C@@H](C)C(=O)N1CCC[C@H]1C(=O)N1CCC[C@H]1C(=O)N1CCC[C@H]1C(=O)N[C@@H](CO)C(N)=O)C(C)C)[C@@H](C)CC [Example 78]	3000	0.0125
CC[C@H](C)[C@H](NC(=O)[C@H](Cc1ccccc1)NC(=O)[C@@H](NC(=O)CNC(=O)[C@H](CCC(=O)O)NC(=O)C(C)(C)NC(=O)[C@@H](N)Cc1ccc(O)cc1)[C@@H](C)O)C(=O)N[C@@H](CO)C(=O)N[C@@H](CC(=O)O)C(=O)N[C@@H](Cc1ccc(O)cc1)C(=O)N[C@@H](CO)C(=O)N[C@H](C(=O)N[C@@](C)(CC(C)C)C(=O)N[C@@H](CC(C)C)C(=O)N[C@@H](CC(=O)O)C(=O)N[C@@H](CCCCN)C(=O)N[C@@H](CCCCNC(=O)COCCOCCNC(=O)COCCOCCNC(=O)CC[C@H](NC(=O)CCCCCCCCCCCCCCCCCCC(=O)O)C(=O)O)C(=O)N[C@@H](Cc1c[nH]cn1)C(=O)N[C@@H](CCC(N)=O)C(=O)NC(C)(C)C(=O)N[C@@H](CC(=O)O)C(=O)N[C@@H](Cc1ccccc1)C(=O)N[C@H](C(=O)N[C@@H](CCC(=O)O)C(=O)N[C@@H](Cc1ccncc1)C(=O)N[C@@H](CC(C)C)C(=O)N[C@@H](CC(C)C)C(=O)N[C@@H](C)C(=O)N[C@@H](CCC(N)=O)C(=O)NCC(=O)N1CCC[C@H]1C(=O)N[C@@H](CO)C(=O)N[C@@H](CO)C(=O)NCC(=O)N[C@@H](C)C(=O)N1CCC[C@H]1C(=O)N1CCC[C@H]1C(=O)N1CCC[C@H]1C(=O)N[C@@H](CO)C(N)=O)C(C)C)[C@@H](C)CC [Example 79] (H-Y[Aib]EGTFISDYSI[αMeL]LDKK([AEEA-AEEA-γGlu-C20 diacid])HQ[Aib]DFVE[4Pal]LLAQGPSSGAPPPS-NH2)	> 5000	0.0316
